Laboratory results published in patent US7425557B2, “Inhibitors of glycogen synthase kinase 3” (Novartis Vaccines and Diagnostics, Inc., priority 1998, dated 2008).
pIC50: −log10 of the molar value.

The molecules below were run against human GSK3β (Homo sapiens, UniProt P49841) (assay: Screening for GSK3 inhibitory activity using a cell-free assay). Details: read-out: IC50 with respect to GSK3.
Format: biochemical
Outline: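 Radiometric cell-free assay with recombinant human GSK3β phosphorylating a biotinylated peptide substrate for 3 h. Reactions were stopped with 50 μM ATP/20 mM EDTA and captured on streptavidin plates. Incorporated radiolabel was counted by scintillation and plotted against compound concentration.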

Chain of human GSK3β (P49841 whole entry): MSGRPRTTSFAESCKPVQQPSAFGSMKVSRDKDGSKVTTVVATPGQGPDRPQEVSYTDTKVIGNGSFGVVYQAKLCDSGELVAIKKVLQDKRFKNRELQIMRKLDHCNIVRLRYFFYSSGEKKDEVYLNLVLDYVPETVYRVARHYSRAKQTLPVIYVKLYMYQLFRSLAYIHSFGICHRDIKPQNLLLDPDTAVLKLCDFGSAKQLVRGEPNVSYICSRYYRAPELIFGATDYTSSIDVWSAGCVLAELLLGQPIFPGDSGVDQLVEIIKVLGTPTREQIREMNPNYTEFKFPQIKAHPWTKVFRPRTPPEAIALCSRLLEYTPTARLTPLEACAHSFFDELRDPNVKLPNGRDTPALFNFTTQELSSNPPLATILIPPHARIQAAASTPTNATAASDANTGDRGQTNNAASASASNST

pIC50 | SMILES
≥ 6.00 | CCOC(=O)c1cnc(NCCNc2ncc([N+](=O)[O-])c(N)n2)nc1-c1ccc(C#N)cc1 [ethyl 2-({2-[(4-amino-5-nitropyrimidin-2-yl)amino]ethyl}amino)-4-(4-cyanophenyl)pyrimidine-5-carboxylate]
≥ 5.00 | CCOC(=O)c1cnc(NCCNc2ccc(N)cn2)nc1-c1ccc(C#N)cc1 [ethyl 2-({2-[(5-amino(2-pyridyl))amino]ethyl}amino)-4-(4-cyanophenyl)pyrimidine-5-carboxylate]
≥ 6.00 | CCOC(=O)c1cnc(NCCNc2ccc(C#N)cn2)nc1-c1ccc(C#N)cc1 [ethyl 2-({2-[(5-cyano(2-pyridyl))amino]ethyl}amino)-4-(4-cyanophenyl)pyrimidine-5-carboxylate]
≥ 5.00 | CCOC(=O)c1cnc(NCCNc2ccc([N+](=O)[O-])cn2)nc1-c1cccc([N+](=O)[O-])c1 [ethyl 2-({2-[(5-nitro(2-pyridyl))amino]ethyl}amino)-4-(3-nitrophenyl)pyrimidine-5-carboxylate]
≥ 5.00 | CCOC(=O)c1cnc(NCCNc2ccc([N+](=O)[O-])cn2)nc1-c1cnc2ccccc2c1 [ethyl 2-({2-[(5-nitro(2-pyridyl))amino]ethyl}amino)-4-(3-quinolyl)pyrimidine-5-carboxylate]
≥ 6.00 | CCOC(=O)c1cnc(NCCNc2ccc([N+](=O)[O-])cn2)nc1-c1ccc(-n2cnnc2)cc1 [ethyl 2-({2-[(5-nitro(2-pyridyl))amino]ethyl}amino)-4-(4-(1,2,4-triazol-4-yl)phenyl)pyrimidine-5-carboxylate]
≥ 5.00 | CCOC(=O)c1cnc(NCCNc2ccc([N+](=O)[O-])cn2)nc1-c1ccc(-c2ccccc2)cc1 [ethyl 2-({2-[(5-nitro(2-pyridyl))amino]ethyl}amino)-4-(4-phenylphenyl)pyrimidine-5-carboxylate]
≥ 6.00 | CCOC(=O)c1cnc(NCCNc2ccc([N+](=O)[O-])cn2)nc1-c1ccncc1 [ethyl 2-({2-[(5-nitro(2-pyridyl))amino]ethyl}amino)-4-(4-pyridyl)pyrimidine-5-carboxylate]
≥ 5.00 | CCOC(=O)c1cnc(NCCNc2ccc([N+](=O)[O-])cn2)nc1-c1ccc(S(N)(=O)=O)cc1 [ethyl 2-({2-[(5-nitro(2-pyridyl))amino]ethyl}amino)-4-(4-sulfamoylphenyl)pyrimidine-5-carboxylate]
≥ 5.00 | CCOC(=O)c1cnc(NCCNc2ccc([N+](=O)[O-])cn2)nc1-c1cccc(C(F)(F)F)c1 [ethyl 2-({2-[(5-nitro(2-pyridyl))amino]ethyl}amino)-4-[3-(trifluoromethyl)phenyl]pyrimidine-5-carboxylate]
≥ 6.00 | CCOC(=O)c1cnc(NCCNc2ccc([N+](=O)[O-])cn2)nc1-c1ccc(C(F)(F)F)cc1 [ethyl 2-({2-[(5-nitro(2-pyridyl))amino]ethyl}amino)-4-[4-(trifluoromethyl)phenyl]pyrimidine-5-carboxylate]
≥ 6.00 | CCOC(=O)c1cnc(NCCNc2ccc([N+](=O)[O-])c(N)n2)nc1-c1ccc(N2CCOCC2)cc1 [ethyl 2-({2-[(6-amino-5-nitro(2-pyridyl))amino]-ethyl}amino)-4-(4-morpholin-4-ylphenyl)pyrimidine-5-carboxylate]
≥ 6.00 | CCOC(=O)c1cnc(NCCNc2ccc([N+](=O)[O-])c(N)n2)nc1-c1ccc(Cl)cc1Cl [ethyl 2-({2-[(6-amino-5-nitro(2-pyridyl))amino]ethyl}amino)-4-(2,4-dichlorophenyl)-pyrimidine-5-carboxylate]
≥ 6.00 | CCOC(=O)c1cnc(NCCNc2ccc([N+](=O)[O-])c(N)n2)nc1-c1ccc(-c2cnco2)cc1 [ethyl 2-({2-[(6-amino-5-nitro(2-pyridyl))amino]ethyl}amino)-4-(4-(1,3-oxazol-5-yl)phenyl)pyrimidine-5-carboxylate]
≥ 6.00 | CCOC(=O)c1cnc(NCCNc2ccc([N+](=O)[O-])c(N)n2)nc1-c1ccc(C#N)cc1 [ethyl 2-({2-[(6-amino-5-nitro(2-pyridyl))amino]ethyl}amino)-4-(4-cyanophenyl)pyrimidine-5-carboxylate]
≥ 6.00 | CCOC(=O)c1cnc(NCCNc2ccc([N+](=O)[O-])cn2)nc1-c1ccc(Cl)cc1Cl [ethyl 4-(2,4-dichlorophenyl)-2-({2-[(5-nitro(2-pyridyl))amino]ethyl}amino)-pyrimidine-5-carboxylate]
≥ 5.00 | CCOC(=O)c1cnc(NCCNc2ccc([N+](=O)[O-])cn2)nc1-c1ccc(F)cc1F [ethyl 4-(2,4-difluorophenyl)-2-({2-[(5-nitro(2-pyridyl))amino]ethyl}amino)pyrimidine-5-carboxylate]
≥ 5.00 | CCOC(=O)c1cnc(NCCc2ccccn2)nc1-c1ccco1 [ethyl 4-(2-furyl)-2-[(2-(2-pyridyl)ethyl)amino]pyrimidine-5-carboxylate]
≥ 6.00 | CCOC(=O)c1cnc(NCCNc2ccc([N+](=O)[O-])cn2)nc1-c1ccc2ccccc2c1 [ethyl 4-(2-naphthyl)-2-({2-[(5-nitro(2-pyridyl))amino]-ethyl}amino)pyrimidine-5-carboxylate]
≥ 5.00 | CCOC(=O)c1cnc(NCCNc2ccc([N+](=O)[O-])cn2)nc1-c1ccc(Cl)c(Cl)c1 [ethyl 4-(3,4-dichlorophenyl)-2-({2-[(5-nitro(2-pyridyl))amino]ethyl}amino)pyrimidine-5-carboxylate]
≥ 6.00 | CCOC(=O)c1cnc(NCCNc2ccc([N+](=O)[O-])cn2)nc1-c1ccc(F)c(F)c1 [ethyl 4-(3,4-difluorophenyl)-2-({2-[(5-nitro(2-pyridyl))amino]ethyl}amino)pyrimidine-5-carboxylate]
≥ 5.00 | CCOC(=O)c1cnc(NCCNc2ccc([N+](=O)[O-])cn2)nc1-c1ccc(OC)c(OC)c1 [ethyl 4-(3,4-dimethoxyphenyl)-2-({2-[(5-nitro(2-pyridyl))amino]ethyl}amino)pyrimidine-5-carboxylate]
≥ 5.00 | CCOC(=O)c1cnc(NCCNc2ccc([N+](=O)[O-])cn2)nc1-c1ccc(C)c(C)c1 [ethyl 4-(3,4-dimethylphenyl)-2-[{2-[(5-nitro(2-pyridyl))amino]ethyl}amino)pyrimidine-5-carboxylate]
≥ 5.00 | CCOC(=O)c1cnc(NCCNc2ccc([N+](=O)[O-])cn2)nc1-c1cc(Cl)cc(Cl)c1 [ethyl 4-(3,5-dichlorophenyl)-2-({2-[(5-nitro(2-pyridyl))amino]ethyl}amino)-pyrimidine-5-carboxylate]
≥ 5.00 | CCOC(=O)c1cnc(NCCNc2ccc([N+](=O)[O-])cn2)nc1-c1cccc(C#N)c1 [ethyl 4-(3-cyanophenyl)-2-({2-[(5-nitro(2-pyridyl))amino]ethyl}amino)pyrimidine-5-carboxylate]
≥ 5.00 | CCOC(=O)c1cnc(NCCNc2ccc([N+](=O)[O-])cn2)nc1-c1cccc(F)c1 [ethyl 4-(3-fluorophenyl)-2-({2-[(5-nitro(2-pyridyl))amino]ethyl}amino)pyrimidine-5-carboxylate]
≥ 5.00 | CCOC(=O)c1cnc(NCCc2ccccn2)nc1-c1cccc([N+](=O)[O-])c1 [ethyl 4-(3-nitrophenyl)-2-[(2-(2-pyridyl)ethyl)-amino]pyrimidine-5-carboxylate]
≥ 5.00 | CCOC(=O)c1cnc(NCCNc2ccccn2)nc1-c1cccc([N+](=O)[O-])c1 [ethyl 4-(3-nitrophenyl)-2-{[2-(2-pyridylamino)ethyl]amino}pyrimidine-5-carboxylate]
